# Results as given in the Bradley open melting point set (2014).
row,Structure (SMILES),melting point [°C]
1,"Cc1cccc(N)c1C [2,3-dimethylaniline] [listing 1 of 2 here]",2
2,"Cc1cccc(N)c1C [2,3-dimethylaniline] [listing 2 of 2 here]",3
3,"O=c1c(-c2ccccc2)c1-c1ccccc1 [2,3-diphenyl-2-cyclopropen-1-one]",120
4,"OB(O)c1cc(F)c(F)cc1F [2,4,5-trifluorobenzeneboronic acid]",100
5,"C[SiH]1O[SiH](C)O[SiH](C)O[SiH](C)O1 (stereo unspecified) [2,4,6,8-tetramethylcyclotetrasiloxane]",-69
6,"Cc1cc(C)nc(C)c1 [2,4,6-collidine]",-43
7,"Oc1c(Br)cc(Br)cc1Br [2,4,6-tribromophenol]",89
8,"NS(=O)(=O)c1c(Cl)cc(Cl)cc1Cl [2,4,6-trichlorobenzenesulfonamide]",180
9,"O=C(O)c1c(Cl)cc(Cl)cc1Cl [2,4,6-trichlorobenzoic acid]",163
10,"Clc1cc(Cl)nc(Cl)n1 [2,4,6-trichloropyrimidine]",23
11,"Cc1cc(C)c(N=C=S)c(C)c1 [2,4,6-trimethylphenyl isothiocyanate]",62
12,"CCC(C)(C)c1ccc(OCC(=O)O)c(C(C)(C)CC)c1 [2,4-di(tert-pentyl)phenoxyacetic acid]",126
13,"OB(O)c1cnc(OCc2ccccc2)nc1OCc1ccccc1 [2,4-dibenzyloxypyrimidine-5-boronic acid]",90
14,"Nc1c(Br)cc(Br)cc1[N+](=O)[O-] [2,4-dibromo-6-nitroaniline]",130
15,"Cc1cc(C)c(Br)c(C)c1Br [2,4-dibromomesitylene]",60
16,"Oc1ccc(Br)cc1Br [2,4-dibromophenol]",40
17,"O=[N+]([O-])c1ccc(Cl)cc1Cl [2,4-dichloro-1-nitrobenzene]",31
18,"CC(=O)c1ccc(Cl)cc1Cl [2,4-dichloroacetophenone]",34
19,"O=C(O)c1ccc(Cl)cc1Cl [2,4-dichlorobenzoic_acid]",159
20,"O=C(Cl)c1ccc(Cl)cc1Cl [2,4-dichlorobenzoyl chloride]",18
21,"O=C=Nc1ccc(Cl)cc1Cl [2,4-dichlorophenyl isocyanate]",59
22,"Cc1ccc(Cl)cc1Cl [2,4-dichlorotoluene]",-13
23,"COc1ccc(C=O)c(OC)c1 [2,4-dimethoxybenzaldehyde]",72
24,"Cc1c[nH]c(C)n1 [2,4-dimethylimidazole]",86

row,Structure (SMILES),melting point [°C]
1,"CC(C)CC(C)C [2,4-dimethylpentane]",-119
2,"Nc1ccc([N+](=O)[O-])cc1[N+](=O)[O-] [2,4-dinitroaniline]",177
3,"O=[N+]([O-])c1ccc(O)c([N+](=O)[O-])c1 [2,4-dinitrophenol]",107
4,"Cc1ccnc(C)c1 [2,4-lutidine]",-60
5,"Cc1cc(CCl)c(C)cc1CCl [2,5-Di(Chloromethyl)-p-xylene]",132
6,"CC(C)(C)c1ccc2oc(-c3ccc(-c4nc5cc(C(C)(C)C)ccc5o4)s3)nc2c1 [2,5-bis(5-tert-butyl-2-benzoxazolyl)thiophene]",201
7,"Cc1cc(CCl)c(C)cc1CCl [2,5-bis(chloromethyl)-p-xylene]",132
8,"O=[N+]([O-])c1c(Br)sc(Br)c1[N+](=O)[O-] [2,5-dibromo-3,4-dinitrothiophene]",136
9,"Nc1cc(Br)ccc1Br [2,5-dibromoaniline]",54
10,"Nc1cc(Cl)ccc1Cl [2,5-dichloroaniline] [listing 1 of 2 here]",50
11,"Nc1cc(Cl)ccc1Cl [2,5-dichloroaniline] [listing 2 of 2 here]",50
12,"OB(O)c1cc(Cl)ccc1Cl [2,5-dichlorobenzeneboronic acid]",213
13,"O=[N+]([O-])c1cc(Cl)ccc1Cl [2,5-dichloronitrobenzene]",56
14,"O=C(O)c1cc(Cl)c(C(=O)O)cc1Cl [2,5-dichloroterephthalic acid]",295
15,"COc1ccc(OC)c(C(C)=O)c1 [2,5-dimethoxyacetophenone]",20
16,"COc1ccc(OC)c(B(O)O)c1 [2,5-dimethoxybenzeneboronic acid]",93
17,"Cc1ccc(C)c(C(=O)O)c1 [2,5-dimethylbenzoic acid]",134
18,"Cc1ccc(C)c(O)c1 [2,5-dimethylphenol]",76
19,"CC1=CC(=O)CC(C)(C)C1=O [2,6,6-trimethyl-2-cyclohexene-1,4-dione]",20
20,"O=C1C(Cl)=CC(=NCl)C=C1Cl [2,6-Dichloro-4-(chloroimino)cyclohexa-2,5-dien-1-one]",67
21,"O=C(O)c1c(Cl)cccc1Cl [2,6-Dichlorobenzoic acid]",144
22,"CC1CNCC(C)O1 (stereo unspecified) [2,6-Dimethylmorpholine]",-85
23,"Cc1cccc(C)c1O [2,6-Dimethylphenol]",49
24,"Cc1cccc(C)n1 [2,6-Dimethylpyridine]",-6

row,Structure (SMILES),melting point [°C]
1,"N#Cc1c(OCC(F)(F)F)cccc1OCC(F)(F)F [2,6-bis(2,2,2-trifluoroethoxy)benzonitrile]",116
2,"Cc1cc(C(C)(C)C)c(O)c(C(C)(C)C)c1 [2,6-di-tert-butyl-4-methylphenol]",71
3,"CC(C)(C)C1=CC(=O)C=C(C(C)(C)C)C1=O [2,6-di-tert-butyl-p-benzoquinone]",67
4,"Nc1cccc(N)n1 [2,6-diaminopyridine]",122
5,"Cc1c(N)cccc1N [2,6-diaminotoluene]",97
6,"CCCc1cc(Br)c(N)c(Br)c1 [2,6-dibromo-4-n-propylaniline]",56
7,"Nc1c(Br)cc([N+](=O)[O-])cc1Br [2,6-dibromo-4-nitroaniline]",207
8,"O=[N+]([O-])/C=C/c1c(Cl)cccc1Cl [2,6-dichloro-beta-nitrostyrene]",65
9,"Nc1c(Cl)cccc1Cl [2,6-dichloroaniline]",39
10,"OB(O)c1c(Cl)cccc1Cl [2,6-dichlorobenzeneboronic acid]",152
11,"O=C(O)c1c(Cl)cccc1Cl [2,6-dichlorobenzoic_acid]",144
12,"[O-][n+]1c(Cl)cccc1Cl [2,6-dichloropyridine n-oxide]",138
13,"O=C(O)/C=C/c1c(F)cccc1F [2,6-difluorocinnamic acid]",125
14,"COC1=CC(=O)C=C(OC)C1=O [2,6-dimethoxy-p-benzoquinone]",255
15,"COc1cccc(OC)c1O [2,6-dimethoxyphenol]",55
16,"CC1=CC(=O)C=C(C)C1=O [2,6-dimethyl-p-benzoquinone]",70
17,"Cc1cccc(C)c1O [2,6-dimethylphenol]",49
18,"CC(C)CCCCC(C)C [2,7-dimethyloctane]",-54
19,O=C(O)c1ccccc1C(=O)Nc1cccc2ccccc12 [2-(1-Naphthylcarbamoyl)benzoic acid],203
20,"CC(Oc1cc(Cl)c(Cl)cc1Cl)C(=O)O (stereo unspecified) [2-(2,4,5-trichlorophenoxy)propionic acid]",178
21,"CC(Oc1ccc(Cl)cc1Cl)C(=O)O (stereo unspecified) [2-(2,4-dichlorophenoxy)propionic acid]",114
22,CCOCCOCCO [2-(2-Ethoxyethoxy)ethanol],-76
23,O=C(O)/C=C/c1ccccc1B(O)O [2-(2-carboxyvinyl)benzeneboronic acid],171
24,"CC1(c2ccccc2B(O)O)OCCO1 [2-(2-methyl-1,3-dioxolan-2-yl)benzeneboronic acid]",111

row,Structure (SMILES),melting point [°C]
1,CCCCOCCOCCOC(C)=O [2-(2-n-butoxyethoxy)ethyl acetate],-32
2,NC(=O)C1=C(CCc2ccccc2)CCCC1 [2-(2-phenylethyl)cyclohex-1-ene-1-carboxamide],113
3,c1cc(C2CNCCN2)cs1 (stereo unspecified) [2-(3-thienyl)piperazine],98
4,OCCc1ccc(OCc2ccccc2)cc1 [2-(4-benzyloxyphenyl)ethanol],86
5,"CCCC1COC(c2ccc(C#N)cc2)OC1 (stereo unspecified) [2-(4-cyanophenyl)-5-n-propyl-1,3-dioxane]",58
6,Fc1ccc(-c2cc3ccccc3[nH]2)cc1 [2-(4-fluorophenyl)indole],189
7,OCCc1ccc(O)cc1 [2-(4-hydroxyphenyl)ethanol],91
8,Oc1ccccc1-c1ccno1 [2-(5-isoxazolyl)phenol],185
9,CNC(C)C(O)c1ccccc1 (stereo unspecified) [2-(Methylamino)-1-phenylpropan-1-ol],36
10,CNCCO [2-(Methylamino)ethanol],-4.5
11,C=CCSc1ncccc1C(=O)O [2-(allylthio)nicotinic acid],147
12,CC(C)(C)OC(=O)Nc1ccccc1B(O)O [2-(boc-amino)benzeneboronic acid],124
13,BrCc1nc2ccccc2s1 [2-(bromomethyl)benzothiazole],48
14,CCOC(=O)c1ccccc1B(O)O [2-(ethoxycarbonyl)benzeneboronic acid],132
15,CCS(=O)(=O)CCO [2-(ethylsulfonyl)ethanol],38
16,CCSc1ncccc1C(=O)Cl [2-(ethylthio)nicotinoyl chloride],51
17,COC(=O)c1ccccc1S(N)(=O)=O [2-(methoxycarbonyl)benzenesulfonamide],124
18,CS(=O)(=O)CCO [2-(methylsulfonyl)ethanol],29
19,CSc1ccccc1B(O)O [2-(methylthio)benzeneboronic acid],160
20,CSc1ccccc1C(=O)O [2-(methylthio)benzoic acid],167
21,CSc1cnccn1 [2-(methylthio)pyrazine],44
22,CCCCCCOCCO [2-(n-hexyloxy)ethanol],-42
23,CCCSc1ncccc1C(N)=O [2-(n-propylthio)nicotinamide],147
24,OB(O)c1ccccc1C(F)(F)F [2-(trifluoromethyl)benzeneboronic acid],109
